Results taken from US20250064789A1, “KETOAMIDE DERIVATIVES AND PHARMACEUTICAL USES THEREOF” (priority 2022, published 2025).
Read-outs that look alike come from different tables or passages of the source.

Molecular target: recombinant SARS-CoV-2 M^pro (Severe acute respiratory syndrome coronavirus 2 (2019-nCoV) (SARS-CoV-2), UniProt P0DTD1)
Test: Inhibition of SARS-CoV-2 M^pro enzyme activity (fluorescent substrate assay)
Format: biochemical
Conditions: inhibition of SARS-CoV-2 M^pro enzyme activity, read-out: IC50

Structure (SMILES)	IC50 (values in nM) [nM]	IC50 (values given in μM) [nM]
O=C(Cn1cc(-c2c(F)ccc(F)c2F)cn1)N[C@H](Cc1ccccc1)C(=O)C(=O)NCc1nccs1 [Compound 505]	239 ± 4	
CC(C)C(Oc1ccc(Cl)cc1)C(=O)N[C@H](C)C(=O)N[C@H](Cc1ccccc1)C(=O)C(=O)NCc1ccccn1 (stereo partly drawn) [Compound 83]	6.7 ± 0.1	
CC(C)(C(=O)N[C@H](Cc1ccccc1)C(=O)C(=O)NCc1nccs1)n1cc(-c2cccc(OC(F)(F)F)c2)cn1 [Compound 529]	224.5 ± 1.3	
O=C(NCc1ccccn1)C(=O)[C@@H](Cc1ccccc1)NC(=O)[C@@]1(NC(=O)C2CCC(F)(F)CC2)C[C@H]1C(F)F [Compound 233]	10.3 ± 0.3	
CC(C)(OCc1ccc(Cl)cc1)C(=O)N[C@H](Cc1ccccc1)C(=O)C(=O)NCc1ccccn1 [Compound 18]	13.7 ± 2	
O=C(CC1CCCC1)NC1(C(=O)N[C@H](Cc2ccccc2)C(=O)C(=O)NCc2ccccn2)CCC1 [Compound 197]	13.8 ± 0.8	
N#Cc1cc(F)cc(-c2nc(CC(=O)N[C@H](Cc3ccccc3)C(=O)C(=O)NCc3nccs3)cs2)c1 [Compound 514]	56.8 ± 0.4	
O=C(CN1C(=O)CN(c2cc(F)cc(F)c2)C1=O)N[C@H](Cc1ccccc1)C(=O)C(=O)NCc1nccs1 [Compound 523]	123 ± 5.1	
Cc1csc(CNC(=O)C(=O)[C@@H](Cc2ccccc2)NC(=O)c2ccccc2)n1 [Compound 462]		40700 ± 1500
C[C@@H](NC(=O)CC1CCC(F)(F)CC1)C(=O)N[C@H](Cc1ccccc1)C(=O)C(=O)NCc1cscn1 [Compound 419]	9.8 ± 0.1	
C[C@@H](OCc1ccc(Cl)c(Cl)c1)C(=O)N[C@H](Cc1ccccc1)C(=O)C(=O)NCc1ccc(Cl)cn1 [Compound 44]	21.7 ± 2.1	
CC(C)(OCc1ccc(Cl)cc1)C(=O)N[C@H](Cc1ccccc1)C(=O)C(=O)NCc1ccc(Cl)cn1 [Compound 43]	20.2 ± 2.5	
C[C@@H](NC(=O)c1ccc(Cl)c(Cl)c1)C(=O)N[C@H](Cc1ccccc1)C(=O)C(=O)NCc1ccccn1 [Compound 99]	27.8 ± 1.1	
C[C@@H](NC(=O)Cc1ccc(F)cc1)C(=O)N[C@H](Cc1ccccc1)C(=O)C(=O)NCc1ccccn1 [Compound 75]	19.3 ± 0.7	
O=C(NCc1ccccn1)C(=O)[C@@H](Cc1ccccc1)NC(=O)C1(NC(=O)C2CCC(F)(F)CC2)CC(F)(F)C1 [Compound 227]	19 ± 0.3	
COC[C@@H](NC(=O)CC1CCC(F)(F)CC1)C(=O)N[C@H](Cc1ccccc1)C(=O)C(=O)NCc1cscn1 [Compound 432]	11.5 ± 0.1	
C[C@@H](NC(=O)c1cnccn1)C(=O)N[C@H](Cc1ccccc1)C(=O)C(=O)NCc1ccccn1 [Compound 106]	161 ± 4.1	
O=C(COc1ccccc1)N[C@H](Cc1ccccc1)C(=O)C(=O)NCc1nccs1 [Compound 476]	880.8 ± 1.2	
O=C(NCc1ccccn1)C(=O)[C@@H](Cc1ccccc1)NC(=O)C1(NC(=O)C2CCC(F)(F)CC2)COC1 [Compound 234]	18.8 ± 2.7	
O=C(NCc1ccccn1)C(=O)[C@@H](Cc1ccccc1)NC(=O)[C@H]1CCCCN1C(=O)CC1CCC(F)(F)CC1 [Compound 283]	14.6	
O=C(Cc1noc(-c2cc(F)ccc2F)n1)N[C@H](Cc1ccccc1)C(=O)C(=O)NCc1nccs1 [Compound 520]	161.3 ± 1.2	
O=C(NCc1ccccn1)C(=O)[C@@H](Cc1ccccc1)NC(=O)C1(NC(=O)C2CCCC(F)(F)C2)CCC1 (stereo partly drawn) [Compound 193]	16.7 ± 0.4	

Structure (SMILES)	IC50 (values in nM) [nM]	IC50 (values given in μM) [nM]
C[C@@H](OCc1cc(F)cc(Cl)c1)C(=O)N[C@H](Cc1ccccc1)C(=O)C(=O)NCc1ccc(Cl)cn1 [Compound 46]	13.3 ± 0.1	
C[C@@H](OCc1ccccc1)C(=O)N[C@H](Cc1ccccc1)C(=O)C(=O)NC(c1ccccc1)c1ccccn1 (stereo partly drawn) [Compound 32]		> 5000
COC[C@@H](NC(=O)N1CCCC(F)(F)C1)C(=O)N[C@H](Cc1ccccc1)C(=O)C(=O)NCc1nccs1 [Compound 548]	410.4 ± 1	
O=C(NCc1ccccn1)C(=O)[C@@H](Cc1ccccc1)NC(=O)[C@H]1COCCN1C(=O)[C@@H]1C[C@@H]2[C@H](C1)C2(F)F [Compound 293]	16.4 ± 1.1	
C[C@@H](NC(=O)Cc1cc2ccccc2o1)C(=O)N[C@H](Cc1ccccc1)C(=O)C(=O)NCc1ccccn1 [Compound 62]	27.8 ± 0.9	
O=C(O)C[C@@H](NC(=O)CC1CC(F)(F)C1)C(=O)N[C@H](Cc1ccccc1)C(=O)C(=O)NCc1nccs1 [Compound 572]	33.8 ± 2.5	
O=C(NCc1cscn1)C(=O)[C@@H](Cc1ccccc1)NC(=O)[C@H]1COCCN1C(=O)C1CCC(F)(F)CC1 [Compound 438]	23.4 ± 1.8	
C[C@@H](NC(=O)C1CC1c1ccccc1)C(=O)N[C@H](Cc1ccccc1)C(=O)C(=O)NCc1ccccn1 (stereo partly drawn) [Compound 104]	16.8 ± 1.1	
Cc1cccnc1CNC(=O)C(=O)[C@@H](Cc1ccccc1)NC(=O)[C@@H](C)NC(=O)C1CCC(F)(F)CC1 [Compound 340]	76.2 ± 1.7	
CC(C)(C)OC(=O)NCC(C)(C)C(=O)N[C@H](Cc1ccccc1)C(=O)C(=O)NCc1ccccn1 [Compound 255]	111 ± 4.1	
O=C(NCc1ccccn1)C(=O)[C@@H](Cc1ccccc1)NC(=O)C1(NC(=O)C2(F)CCCCC2)CC1 [Compound 168]	10.7 ± 0.4	
C[C@@H](NC(=O)COc1cccnc1)C(=O)N[C@H](Cc1ccccc1)C(=O)C(=O)NCc1ccccn1 [Compound 112]	112.6 ± 0.5	
O=C(CNC(=O)c1ccccc1)N[C@H](Cc1ccccc1)C(=O)C(=O)NCc1nccs1 [Compound 477]		1860 ± 40
O=C(NCc1ccccn1)C(=O)[C@@H](Cc1ccccc1)NC(=O)[C@H]1Cc2ccccc2CN1C(=O)OC1CCC(F)(F)CC1 [Compound 312]	14.5 ± 0.1	
COC[C@@H](NC(=O)N1CC(F)(F)C(F)(F)C1)C(=O)N[C@H](Cc1ccccc1)C(=O)C(=O)NCc1nccs1 [Compound 552]	200.9 ± 1.6	
C[C@@H](OCc1cccc(OC(F)(F)F)c1)C(=O)N[C@H](Cc1ccccc1)C(=O)C(=O)NCc1ccc(Cl)cn1 [Compound 47]	14.1 ± 0.1	
O=C(NCc1nccs1)C(=O)[C@@H](Cc1ccccc1)NC(=O)C1(NC(=O)C2CCC(F)(F)CC2)CCCC1 [Compound 541]	51.8 ± 1.4	
O=C(NCc1ccccn1)C(=O)[C@@H](Cc1ccccc1)NC(=O)C1(NC(=O)C23CC4(F)CC(F)(CC(F)(C4)C2)C3)CCC1 [Compound 203]	19.6 ± 0.6	
C[C@@H](NC(=O)COc1ccc(Cl)cc1F)C(=O)N[C@H](Cc1ccccc1)C(=O)C(=O)NCc1ccccn1 [Compound 86]	70.5 ± 2.5	
C[C@@H](OCc1ccccc1)C(=O)N[C@H](Cc1ccccc1)C(=O)C(=O)NCc1ccc(Cl)cn1 [Compound 36]	30.9 ± 0.2	
O=C(CNC(=O)C1CCC(F)(F)C1)N[C@H](Cc1ccccc1)C(=O)C(=O)NCc1nccs1 (stereo partly drawn) [Compound 391]	109 ± 8.6	
CC(C)(NC(=O)c1ccc(F)c(OC(F)(F)F)c1)C(=O)N[C@H](Cc1ccccc1)C(=O)C(=O)NCc1ccccn1 [Compound 184]	13.3 ± 0.2	

Structure (SMILES)	IC50 (values in nM) [nM]	IC50 (values given in μM) [nM]
O=C(CNC(=O)C1CCC(F)(F)CC1)N[C@H](Cc1ccccc1)C(=O)C(=O)NCc1cscn1 [Compound 421]	20.7 ± 0.5	
C[C@@H](NC(=O)COc1ccc(F)cc1)C(=O)N[C@H](Cc1ccccc1)C(=O)C(=O)NCc1ccccn1 [Compound 148]	11.7 ± 2.4	
O=C(CNC(=O)C1CCC(F)(F)CC1)N[C@H](Cc1ccccc1)C(=O)C(=O)NCc1nccs1 [Compound 388]	62.9 ± 8.1	
O=C(NCc1ccccn1)C(=O)[C@@H](Cc1ccccc1)NC(=O)[C@H](NC(=O)C1CCC(F)(F)CC1)C1CCCC1 [Compound 226]	16 ± 0.8	
O=C(CC1CCC(F)(F)CC1)NC1(C(=O)N[C@H](Cc2ccccc2)C(=O)C(=O)NCc2ccccn2)CC1 [Compound 160]	13.5 ± 3.5	
O=C(NCc1cscn1)C(=O)[C@@H](Cc1ccccc1)NC(=O)[C@H]1CC(F)(F)CN1C(=O)C1CCC(F)(F)CC1 [Compound 433]	749.6 ± 1.1	
O=C(Cc1noc(-c2ccc(F)c(C(F)(F)F)c2)n1)N[C@H](Cc1ccccc1)C(=O)C(=O)NCc1nccs1 [Compound 524]	32.8 ± 3.2	
O=C(NCc1nccs1)C(=O)[C@@H](Cc1ccccc1)NC(=O)C1(NC(=O)C2CCC(F)(F)CC2)CCC1 [Compound 539]	21.8 ± 0.5	
C[C@@H](OCc1cc(F)cc(Cl)c1)C(=O)N[C@H](Cc1ccccc1)C(=O)C(=O)NCc1ccccn1 [Compound 15]	9.8 ± 0.1	
C[C@@H](NC(=O)N1CCC(C(F)(F)F)CC1)C(=O)N[C@H](Cc1ccccc1)C(=O)C(=O)NCc1ccccn1 [Compound 297]	18.1 ± 0.3	
O=C(CN1C(=O)CN(c2ccc(F)c(Cl)c2)C1=O)N[C@H](Cc1ccccc1)C(=O)C(=O)NCc1nccs1 [Compound 519]	32.7 ± 3.1	
C[C@@H](NC(=O)c1cccc(F)c1)C(=O)N[C@H](Cc1ccccc1)C(=O)C(=O)NCc1ccccn1 [Compound 139]	24.3 ± 2.3	
C[C@@H](NC(=O)C1CCC(F)(F)CC1)C(=O)N[C@H](Cc1ccccc1)C(=O)C(=O)NCc1ccon1 [Compound 353]	845.8 ± 2.1	
O=C(NCc1ccccn1)C(=O)[C@@H](Cc1ccccc1)NC(=O)[C@H]1CCCCN1C(=O)CCC1CCC(F)(F)CC1 [Compound 285]	17.1 ± 0.2	
O=C(CNC(=O)c1cnccn1)N[C@H](Cc1ccccc1)C(=O)C(=O)NCc1nccs1 [Compound 478]		3620 ± 270
COc1ccc(OCC(=O)N[C@H](C)C(=O)N[C@H](Cc2ccccc2)C(=O)C(=O)NCc2ccccn2)cc1 [Compound 92]	26.6 ± 0.4	
C[C@@H](NC(=O)C1CCC(C(F)(F)F)CC1)C(=O)N[C@H](Cc1ccccc1)C(=O)C(=O)NCc1ccccn1 (stereo partly drawn) [Compound 147]	13 ± 0.7	
O=C(CNC(=O)c1cnccn1)N[C@H](Cc1ccccc1)C(=O)C(=O)NCc1ccccn1 [Compound 154]	193 ± 2	
O=C(NCc1nccs1)C(=O)[C@@H](Cc1ccccc1)NC(=O)C1(n2ccc(C3CCC(F)(F)CC3)n2)CC1 [Compound 512]	22.1 ± 0.5	
CC(C)(OCc1ccc(F)cc1)C(=O)N[C@H](Cc1ccccc1)C(=O)C(=O)NCc1nccs1 [Compound 484]	95.7 ± 1.5	
C[C@@H](NC(=O)c1cc(F)cc(Cl)c1)C(=O)N[C@H](Cc1ccccc1)C(=O)C(=O)NCc1ccccn1 [Compound 101]	21.6 ± 0.8	
COc1ccc(CO[C@H](C)C(=O)N[C@H](Cc2ccccc2)C(=O)C(=O)NCc2ccccn2)cc1F [Compound 16]	18.9 ± 1.7	
